{"source": "patent US11827627B2", "about": "“N-(hydroxyalkyl (hetero)aryl) tetrahydrofuran carboxamides as modulators of sodium channels” (VERTEX PHARMACEUTICALS INCORPORATED, priority 2021, dated 2023)", "biological_target": "human NaV 1.8 (Homo sapiens, UniProt Q9Y5Y9)", "sequence (Q9Y5Y9 126-1722 limits assumed)": "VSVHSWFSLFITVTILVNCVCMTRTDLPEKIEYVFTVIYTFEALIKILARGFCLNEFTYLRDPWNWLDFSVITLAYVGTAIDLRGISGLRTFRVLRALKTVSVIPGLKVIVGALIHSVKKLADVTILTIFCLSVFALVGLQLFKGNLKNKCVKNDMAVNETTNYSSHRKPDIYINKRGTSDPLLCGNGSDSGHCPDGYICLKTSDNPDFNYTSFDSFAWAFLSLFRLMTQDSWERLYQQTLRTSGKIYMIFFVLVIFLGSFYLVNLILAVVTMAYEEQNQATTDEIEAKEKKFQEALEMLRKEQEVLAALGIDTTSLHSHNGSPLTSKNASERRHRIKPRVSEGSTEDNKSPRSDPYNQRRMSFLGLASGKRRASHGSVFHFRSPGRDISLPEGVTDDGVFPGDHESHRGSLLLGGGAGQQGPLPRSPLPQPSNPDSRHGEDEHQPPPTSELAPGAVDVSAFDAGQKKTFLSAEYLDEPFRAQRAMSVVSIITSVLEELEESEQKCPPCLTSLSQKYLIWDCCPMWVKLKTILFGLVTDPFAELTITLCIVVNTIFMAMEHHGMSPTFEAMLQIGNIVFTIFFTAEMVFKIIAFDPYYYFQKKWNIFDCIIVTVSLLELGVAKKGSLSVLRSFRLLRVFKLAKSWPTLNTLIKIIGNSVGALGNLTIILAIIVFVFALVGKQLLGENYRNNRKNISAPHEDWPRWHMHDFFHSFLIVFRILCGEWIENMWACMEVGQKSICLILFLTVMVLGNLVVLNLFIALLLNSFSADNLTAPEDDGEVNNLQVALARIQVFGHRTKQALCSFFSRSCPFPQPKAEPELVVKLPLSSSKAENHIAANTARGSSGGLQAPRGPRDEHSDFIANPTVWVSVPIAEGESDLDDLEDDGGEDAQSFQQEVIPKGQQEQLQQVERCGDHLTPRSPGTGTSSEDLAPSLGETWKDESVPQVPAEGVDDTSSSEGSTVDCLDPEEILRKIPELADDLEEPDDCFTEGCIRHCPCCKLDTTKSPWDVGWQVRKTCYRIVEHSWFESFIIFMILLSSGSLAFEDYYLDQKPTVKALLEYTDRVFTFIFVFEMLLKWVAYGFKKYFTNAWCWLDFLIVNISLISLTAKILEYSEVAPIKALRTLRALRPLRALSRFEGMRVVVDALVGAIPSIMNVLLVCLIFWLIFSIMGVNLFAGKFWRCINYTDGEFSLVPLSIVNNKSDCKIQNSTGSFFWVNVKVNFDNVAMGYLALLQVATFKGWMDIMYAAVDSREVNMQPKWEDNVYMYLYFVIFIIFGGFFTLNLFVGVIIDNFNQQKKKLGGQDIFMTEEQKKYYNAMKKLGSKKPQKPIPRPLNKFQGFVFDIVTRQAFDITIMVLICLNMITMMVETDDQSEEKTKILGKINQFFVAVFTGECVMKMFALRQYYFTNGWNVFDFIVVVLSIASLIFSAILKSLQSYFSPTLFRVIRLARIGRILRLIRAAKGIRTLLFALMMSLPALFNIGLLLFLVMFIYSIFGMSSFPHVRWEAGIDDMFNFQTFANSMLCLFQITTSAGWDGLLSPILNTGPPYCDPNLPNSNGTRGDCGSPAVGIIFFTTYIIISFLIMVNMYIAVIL", "assay": "E-VIPR assay detecting and measuring NaV inhibition properties", "format": "cell-based", "settings": "HEK cells expressing a truncated form of human NaV 1.8; electrical stimulation, membrane potential FRET dyes", "description": "E-VIPR Assay Detecting and Measuring NaV Inhibition Properties\nSodium ion channels are voltage-dependent proteins that can be activated by inducing membrane voltage changes by applying electric fields. The electrical stimulation instrument and methods of use, referred to as E-VIPR, are described in International Publication No. WO 2002/008748 A3 and C.-J. Huang et al. Characterization of voltage-gated sodium channel blockers by electrical stimulation and fluorescence detection of membrane potential, 24 Nature Biotech. 439-46 (2006), both of which are incorporated by reference in their entirety. The instrument comprises a microtiter plate handler, an optical system for exciting the coumarin dye while simultaneously recording the coumarin and oxonol emissions, a waveform generator, a current- or voltage-controlled amplifier, and parallel electrode pairs that are inserted into assay plate wells. Under integrated computer control, this instrument passes user-programmed electrical stimulus protocols to cells within the wells of the microtiter plate.\n16-20 hours prior to running the assay on E-VIPR, HEK cells expressing a truncated form of human NaV 1.8 with full channel activity were seeded into microtiter 384-well plates, pre-coated with matrigel, at a density of 25,000 cells per well. 2.5-5% KIR2.1 Bacmam virus was added to the final cell suspension before seeding into cell plates. HEK cells were grown in Dulbecco's Modified Eagle's Medium (DMEM) supplemented with 10% FBS (Fetal Bovine Serum, qualified; Sigma #F4135), 1% NEAA (Non-Essential Amino Acids, Gibco #11140), 1% HEPES (Gibco #15630), 1% Pen-Strep (Penicillin-Streptomycin; Gibco #15140) and 5 μg/ml Blasticidin (Gibco #R210-01). Cells were expanded in vented cap cell culture flasks, with 90-95% humidity and 5% CO2.\nReagents and Stock Solutions:\n100 mg/mL Pluronic F-127 (Sigma #P2443), in dry DMSO\nCompound Plates: Corning 384-well Polypropylene Round Bottom #3656\nCell Plates: 384-well tissue culture treated plates (Greiner #781091-2B)\n2.5-5% KIR 2.1 Bacmam virus (produced in-house), prepared as described in Section 3.3 of J. A. Fornwald et al., Gene Expression in Mammalian Cells Using BacMam, a Modified Baculovirus System, 1350 Methods in Molecular Biology 95-116 (2016), the entire contents of which are incorporated by reference. The concentration used can be dependent on viral titer of each batch.\n5 mM DiSBAC6(3), a voltage sensitive oxonol acceptor (CAS number 169211-44-3; 5-[3-(1,3-dihexylhexahydro-4,6-dioxo-2-thioxo-5-pyrimidinyl)-2-propen-1-ylidene]-1,3-dihexyldihydro-2-thioxo-4,6(1H,5H)-pyrimidinedione), in dry DMSO. The preparation of DiSBAC6(3) is analogous to that of DiSBAC4(3) as described in Voltage Sensing by Fluorescence Resonance Energy Transfer in Single Cells, Gonzalez, J. E. and Tsien, R. Y. (1995) Biophys. J. 69, 1272-1280.\n5 mM CC2-DMPE, a commercially available membrane-bound coumarin phospholipid FRET donor (ThermoFisher Scientific catalog number K1017, CAS number 393782-57-5; tetradecanoic acid, 1,1′-[(1R)-1-[8-(6-chloro-7-hydroxy-2-oxo-2H-1-benzopyran-3-yl)-3-hydroxy-3-oxido-8-oxo-2,4-dioxa-7-aza-3-phosphaoct-1-yl]-1,2-ethanediyl]ester) was prepared in dry DMSO. See also, Improved indicators of cell membrane potential that use fluorescence resonance energy transfer, Gonzalez, J. E. and Tsien, R. Y. (1997) Chem. Biol. 4, 269-277.\nVoltage Assay Background Suppression Compound (VABSC-1) is prepared in H2O (89-363 mM, range used to maintain solubility)\nHuman Serum (HS, Millipore #S1P1-01KL, or Sigma SLBR5469V and SLBR5470V as a 50%/50% mixture, for 25% assay final concentration)\nBath 1 Buffer: • Sodium Chloride 160 mM (9.35 g/L), Potassium Chloride, 4.5 mM (0.335 g/L), Glucose 10 mM (1.8 g/L), Magnesium Chloride (Anhydrous) 1 mM (0.095 g/L), Calcium Chloride 2 mM (0.222 g/L), HEPES 10 mM (2.38 g/L) in water. […]", "data": [{"smiles": "C[C@@]1(C(F)(F)F)C[C@H](c2ccc(OC(F)(F)F)cc2Cl)[C@@H](C(=O)Nc2ccc([C@@H](O)CO)nc2)O1", "note": "(single isomer, unassigned) [Compound 61, rel-(2S,3R,5S)-3-(2-chloro-4-(trifluoromethoxy)phenyl)-N-(6-((R*)-1,2-dihydroxyethyl)pyridin-3-yl)-5-methyl-5-(trifluoromethyl)tetrahydrofuran-2-carboxamide]", "values": [{"measurement": "IC50", "result": "≥ 1000", "unit": "nM"}]}, {"smiles": "C[C@]1(C(F)(F)F)C[C@@H](c2ccc(OC(F)(F)F)cc2Cl)[C@H](C(=O)Nc2ccc([C@@H](O)CO)nc2)O1", "note": "(single isomer, unassigned) [Compound 62, rel-(2R,3S,5R)-3-(2-chloro-4-(trifluoromethoxy)phenyl)-N-(6-((R*)-1,2-dihydroxyethyl)pyridin-3-yl)-5-methyl-5-(trifluoromethyl)tetrahydrofuran-2-carboxamide]", "values": [{"measurement": "IC50", "result": "100 to 1000", "unit": "nM"}]}, {"smiles": "C[C@@]1(C(F)(F)F)C[C@@H](c2ccc(OC(F)(F)F)cc2Cl)[C@H](C(=O)Nc2ccc([C@@H](O)CO)nc2)O1", "note": "(single isomer, unassigned) [Compound 63, rel-(2R,3S,5S)-3-(2-chloro-4-(trifluoromethoxy)phenyl)-N-(6-((R*)-1,2-dihydroxyethyl)pyridin-3-yl)-5-methyl-5-(trifluoromethyl)tetrahydrofuran-2-carboxamide]", "values": [{"measurement": "IC50", "result": "≥ 1000", "unit": "nM"}]}, {"smiles": "C[C@]1(C(F)(F)F)C[C@H](c2ccc(OC(F)(F)F)cc2Cl)[C@@H](C(=O)Nc2ccc([C@@H](O)CO)nc2)O1", "note": "(single isomer, unassigned) [Compound 64, rel-(2S,3R,5R)-3-(2-chloro-4-(trifluoromethoxy)phenyl)-N-(6-((R*)-1,2-dihydroxyethyl)pyridin-3-yl)-5-methyl-5-(trifluoromethyl)tetrahydrofuran-2-carboxamide]", "values": [{"measurement": "IC50", "result": "≥ 1000", "unit": "nM"}]}, {"smiles": "Cc1c([C@@H]2[C@@H](C(=O)Nc3ccc([C@@H](O)CO)nc3)O[C@@](C)(C(F)(F)F)[C@H]2C)ccc(F)c1F", "note": "(single isomer, unassigned) [Compound 65, rel-(2S,3R,4S,5R)-3-(3,4-difluoro-2-methylphenyl)-N-(6-((R*)-1,2-dihydroxyethyl)pyridin-3-yl)-4,5-dimethyl-5-(trifluoromethyl)tetrahydrofuran-2-carboxamide]", "values": [{"measurement": "IC50", "result": "≥ 1000", "unit": "nM"}]}, {"smiles": "Cc1c([C@H]2[C@H](C(=O)Nc3ccc([C@@H](O)CO)nc3)O[C@@](C)(C(F)(F)F)[C@H]2C)ccc(F)c1F", "note": "(single isomer, unassigned) [Compound 66, rel-(2R,3S,4S,5R)-3-(3,4-difluoro-2-methylphenyl)-N-(6-((R*)-1,2-dihydroxyethyl)pyridin-3-yl)-4,5-dimethyl-5-(trifluoromethyl)tetrahydrofuran-2-carboxamide]", "values": [{"measurement": "IC50", "result": "10 to 100", "unit": "nM"}]}, {"smiles": "Cc1c([C@@H]2[C@@H](C)[C@@](C)(C(F)(F)F)O[C@H]2C(=O)Nc2ccc([C@@H](O)CO)nc2)ccc(F)c1F", "note": "(single isomer, unassigned) [Compound 67, rel-(2R,3S,4R,5S)-3-(3,4-difluoro-2-methylphenyl)-N-(6-((R*)-1,2-dihydroxyethyl)pyridin-3-yl)-4,5-dimethyl-5-(trifluoromethyl)tetrahydrofuran-2-carboxamide]", "values": [{"measurement": "IC50", "result": "≥ 1000", "unit": "nM"}]}, {"smiles": "Cc1c([C@@H]2[C@@H](C(=O)Nc3ccc([C@@H](O)CO)nc3)O[C@](C)(C(F)(F)F)[C@@H]2C)ccc(F)c1F", "note": "(single isomer, unassigned) [Compound 68, rel-(2S,3R,4R,5S)-3-(3,4-difluoro-2-methylphenyl)-N-(6-((R*)-1,2-dihydroxyethyl)pyridin-3-yl)-4,5-dimethyl-5-(trifluoromethyl)tetrahydrofuran-2-carboxamide]", "values": [{"measurement": "IC50", "result": "≥ 1000", "unit": "nM"}]}, {"smiles": "COc1c([C@@H]2[C@@H](C(=O)Nc3ccc([C@@H](O)CO)nc3)O[C@](C)(C(F)(F)F)[C@@H]2C)cccc1C(F)(F)F", "note": "(single isomer, unassigned) [Compound 69, rel-(2S,3R,4R,5S)-N-(6-((R*)-1,2-dihydroxyethyl)pyridin-3-yl)-3-(2-methoxy-3-(trifluoromethyl)phenyl)-4,5-dimethyl-5-(trifluoromethyl)tetrahydrofuran-2-carboxamide]", "values": [{"measurement": "IC50", "result": "≥ 1000", "unit": "nM"}]}, {"smiles": "COc1c([C@H]2[C@H](C(=O)Nc3ccc([C@@H](O)CO)nc3)O[C@@](C)(C(F)(F)F)[C@H]2C)cccc1C(F)(F)F", "note": "(single isomer, unassigned) [Compound 70, rel-(2R,3S,4S,5R)-N-(6-((R*)-1,2-dihydroxyethyl)pyridin-3-yl)-3-(2-methoxy-3-(trifluoromethyl)phenyl)-4,5-dimethyl-5-(trifluoromethyl)tetrahydrofuran-2-carboxamide]", "values": [{"measurement": "IC50", "result": "< 10", "unit": "nM"}]}, {"smiles": "COc1c([C@H]2[C@H](C(=O)Nc3cnc(C(O)CO)nc3)O[C@@](C)(C(F)(F)F)[C@H]2C)cccc1C(F)(F)F", "note": "(single isomer, unassigned) [Compound 71]", "values": [{"measurement": "IC50", "result": "100 to 1000", "unit": "nM"}]}, {"smiles": "COc1c([C@@H]2[C@@H](C(=O)Nc3cnc(C(O)CO)nc3)O[C@](C)(C(F)(F)F)[C@@H]2C)cccc1C(F)(F)F", "note": "(single isomer, unassigned) [Compound 72]", "values": [{"measurement": "IC50", "result": "≥ 1000", "unit": "nM"}]}, {"smiles": "COc1c([C@H]2[C@H](C(=O)Nc3cnc(C(O)CO)nc3)O[C@@](C)(C(F)(F)F)[C@H]2C)cccc1C(F)(F)F", "note": "(single isomer, unassigned) [Compound 73]", "values": [{"measurement": "IC50", "result": "10 to 100", "unit": "nM"}]}, {"smiles": "CCOc1ccc([C@H]2[C@H](C(=O)Nc3ccc([C@@H](O)CO)nc3)O[C@@](C)(C(F)(F)F)[C@H]2C)c2c1OC(F)(F)O2", "note": "(single isomer, unassigned) [Compound 75, rel-(2R,3S,4S,5R)-N-(6-((R*)-1,2-dihydroxyethyl)pyridin-3-yl)-3-(7-ethoxy-2,2-difluorobenzo[d][1,3]dioxol-4-yl)-4,5-dimethyl-5-(trifluoromethyl)tetrahydrofuran-2-carboxamide]", "values": [{"measurement": "IC50", "result": "≥ 1000", "unit": "nM"}]}, {"smiles": "Cc1c([C@@H]2[C@@H](C)[C@@](C)(C(F)(F)F)O[C@H]2C(=O)Nc2ccc(CO)nc2)ccc(F)c1F", "note": "(single isomer, unassigned) [Compound 77]", "values": [{"measurement": "IC50", "result": "≥ 1000", "unit": "nM"}]}, {"smiles": "Cc1c([C@@H]2[C@@H](C(=O)Nc3ccc(CO)nc3)O[C@](C)(C(F)(F)F)[C@@H]2C)ccc(F)c1F", "note": "(single isomer, unassigned) [Compound 78]", "values": [{"measurement": "IC50", "result": "≥ 1000", "unit": "nM"}]}, {"smiles": "Cc1c([C@@H]2[C@@H](C(=O)Nc3ccc(CO)nc3)O[C@@](C)(C(F)(F)F)[C@H]2C)ccc(F)c1F", "note": "(single isomer, unassigned) [Compound 79]", "values": [{"measurement": "IC50", "result": "≥ 1000", "unit": "nM"}]}, {"smiles": "Cc1c([C@H]2[C@H](C(=O)Nc3ccc(CO)nc3)O[C@@](C)(C(F)(F)F)[C@H]2C)ccc(F)c1F", "note": "(single isomer, unassigned) [Compound 80]", "values": [{"measurement": "IC50", "result": "< 10", "unit": "nM"}]}, {"smiles": "COc1c(C2C(C(=O)Nc3ccc(CO)nc3)OC(C)(C(F)(F)F)C2C)cccc1C(F)(F)F", "note": "(single isomer, unassigned) [Compound 81]", "values": [{"measurement": "IC50", "result": "≥ 1000", "unit": "nM"}]}, {"smiles": "COc1c(C2C(C(=O)Nc3ccc(CO)nc3)OC(C)(C(F)(F)F)C2C)cccc1C(F)(F)F", "note": "(single isomer, unassigned) [Compound 82]", "values": [{"measurement": "IC50", "result": "< 10", "unit": "nM"}]}, {"smiles": "COc1c(C2C(C(=O)Nc3ccc(CO)nc3)OC(C)(C(F)(F)F)C2C)ccc(C(F)F)c1F", "note": "(single isomer, unassigned) [Compound 90]", "values": [{"measurement": "IC50", "result": "≥ 1000", "unit": "nM"}]}, {"smiles": "COc1c(C2C(C(=O)Nc3ccc(CO)nc3)OC(C)(C(F)(F)F)C2C)ccc(C(F)F)c1F", "note": "(single isomer, unassigned) [Compound 91]", "values": [{"measurement": "IC50", "result": "10 to 100", "unit": "nM"}]}]}
